This note sets out measurements from patent US11485701B2, “Insect repellent compounds and compositions, and methods thereof” (Iowa State University Research Foundation, Inc., priority 2016, dated 2022).

Counter-ions that a name gives are not always drawn. Like-named read-outs stand apart in the source and are kept apart here.

This test concerns Northern house mosquitoes (Culex pipiens). Kind of test: Short-term spatial repellency, static air repellency chamber. The class given is in vivo. Particulars: for Short-term repellency at low concentration, in words: filter paper treated with 0.1%; for pest or weed control at 0.5 %: Culex pipiens. The method, then: Northern house mosquitoes (Culex pipiens), a primary carrier of West Nile virus in eastern North America, were obtained from an established colony in the Medical Entomology Laboratory in the Department of Entomology at Iowa State University of Science and Technology, Ames Iowa. Mosquito rearing was performed by established protocols that are maintained by the Medical Entomology Laboratory. Repellency bioassays were performed with adult female mosquitoes that emerged 5-7 days previously. […] Mosquitoes, prior to testing, were held at 27° C., 80% relative humidity, and on a 16:8 hr light:dark photoperiod.
Repellency bioassays were performed using a static air repellency chamber, which has been described in various publications by the Pesticide Toxicology Laboratory at Iowa State University of Science and Technology, Ames, Iowa Briefly, a 9-cm×60-cm glass tube was used to monitor the distribution of mosquitoes at 15 min, 30 min, 60 min, 90 min, 120 min, and 150 min after introducing mosquitoes into the static air repellency chamber. […] One end of the spatial chamber contained a treated filter paper, whereas the other (untreated) end of the spatial chamber was not treated with compound. Controls contained filter papers treated with acetone, the solvent used to make the 0.5% solutions. Each end of the repellency chamber was secured with a 100-mm Petri dish using celluloid tape. After securing the petri dishes with corresponding treated or untreated filter papers to the spatial chamber, mosquitoes were anesthetized with carbon dioxide, and approximately 20 female mosquitoes were placed into each repellency chamber for one replicate. The opening of the spatial repellency chamber was secured with celluloid tape to prevent their escape. Chambers were oriented in opposite directions from the previous replicate to account for any directional effect. Four replicates were performed for data analysis for both the control and treatment groups.
Data for spatial repellency, the percentage repellency, is reported at each of the respective time points in the figures and tables mentioned below. The percentage spatial repellency is the examination of the distribution of mosquitoes and is calculated using the following equation: […]

Setting [1] is: 0.25 h, filter paper, 1 mL of 0.5% solution in acetone, air-dried 15 min, 15 min after introduction, read-out: Short-term Percentage repellency 15 min.
[2] abbreviates: 1.5 h, filter paper, 1 mL of 0.5% solution in acetone, air-dried 15 min, 90 min, read-out: Short-term Percentage repellency 90 min.
Setting [3] is: 2.5 h, filter paper, 1 mL of 0.5% solution in acetone, air-dried 15 min, 150 min, read-out: Short-term Percentage repellency 150 min.

On to `CC(C)=CCCC(C)CCOC(=O)C1CCC1` (stereo not shown) [Citronellyl cyclobutanecarboxylate], for which the “Short-term percentage repellency 150 min at 1/5 the concentration” value (0.1% (1/5 of 0.5%), 150 minutes, FIG. 6) is recorded as “approximately 90%”. In addition, where the note is “FIG. 6”, the “Short-term repellency at low concentration, in words” value was “significant levels of repellency”.
Take `CC(C)=CCCC(C)CC(=O)OCCO` (stereo not shown) [Compound 1052, 2-hydroxyethyl citronellate]: the pest or weed control at 0.5 % runs as follows: under setting [1], 77.5%; under setting [2], 92.5%; under setting [3], 82.5%.
The like results for `Cc1cc(OC(=O)C2CC2)c(C(C)C)cc1[N+](=O)[O-]` [Compound 1066B, 4-nitrothymyl cyclopropanecarboxylate] were, in that order, 37.5%, 57.5% and 70%.
On to `Cc1cc(OC(=O)C2CC2)c(C(C)C)cc1Br` [Compound 1075B, 4-bromothymyl cyclopropanecarboxylate], for which the pest or weed control at 0.5 % under setting [1] worked out at 47.5%, the pest or weed control at 0.5 % under setting [2] is 32.5% and the pest or weed control at 0.5 % under setting [3] was determined as 30%.
In the case of `C=CCc1ccc(OC(=O)CC(C)C)c(OC)c1` [Compound 1076A, eugenyl isovalerate], under setting [1], the pest or weed control at 0.5 % was 17.5%.
For `Cc1ccc(C(C)C)cc1OC(=O)CC(C)C` [Compound 1079C, carvacryl isovalerate], the pest or weed control at 0.5 % was -10% under setting [1], 87.5% under setting [2] and 95% under setting [3].
For `CC(C)=CCCC(C)CCOC=O` (stereo not shown) [Compound 1089, citronellyl formate], in that order: 77.5%, 92.5% and 90%.
The like results for `CC(=O)OCCOC(=O)C=Cc1ccccc1` [Compound 1105, 2-acetoxyethyl cinnamate] were, in that order, 30%, 15% and 10%.
For `Cc1cc(OC(=O)C(C)C)c(C(C)C)cc1Cl` [Compound 1144B, chlorothymyl isobutyrate], in that order: 40%, 77.5% and 87.5%.
As to `CC(C)=CCCC(C)CC(=O)OCC1CCC1` (stereo not shown) [Compound 2026, cyclobutylmethyl citronellate], the pest or weed control at 0.5 % is, setting by setting: under setting [1], 25%; under setting [2], 37.5%; under setting [3], 25%.
As to `O=C(OC/C=C/c1ccccc1)C1CC1` [Compound 2038, cinnamyl cyclopropanecarboxylate], the pest or weed control at 0.5 % runs as follows: under setting [1], 40%; under setting [2], 57.5%; under setting [3], 60%.
For `CC(C)=CCCC(C)CCOC(=O)C=C(C)C` (stereo not shown) [Compound 2105, citronellyl 3,3-dimethylacrylate], in that order: 45%, 75% and 65%.
The like results for `CC(C)=CCC/C(C)=C\COC(=O)C1(C)CCC1` [Compound 2108, neryl 1-methylcyclobutanecarboxylate] were, in that order, 60%, 90% and 85%.
`C=CC(C)(CCC=C(C)C)OC(=O)CC(C)C` (stereo not shown) [Compound 2152, linalyl isovalerate]: the pest or weed control at 0.5 % is, setting by setting: under setting [1], 15%; under setting [2], 82.5%; under setting [3], 92.5%.
For `C=C(C)CCOC(=O)CC(C)CCC=C(C)C` (stereo not shown) [Compound 2168, isoprenyl citronellate], in that order: 27.5%, 62.5% and 72.5%.
For `C#CC(C)(C)OC(=O)CC(C)CCC=C(C)C` (stereo not shown) [Compound 2171, 1,1-dimethylpropargyl citronellate], in that order: 37.5%, 67.5% and 62.5%.
For `CC(C)=CCCC(C)CCOC(=O)c1cccs1` (stereo not shown) [Compound 2180, Citronellyl thiophene-2-carboxylate], in that order: 0%, 37.5% and 45%.
In the case of `CC(C)=CCCC(C)CCOC(=O)c1ccccc1` (stereo not shown) [Compound 2189, citronellyl benzoate], the pest or weed control at 0.5 % is, setting by setting: under setting [1], 6.5%; under setting [2], 17.5%; under setting [3], 27.5%.
Turning to `Cc1ccc(C(C)C)c(OC(=O)C(F)F)c1` [Compound 2194, thymyl difluoroacetate], for the setting “0.25 h, read-out: Short-term Percentage repellency 15 min”, the pest or weed control at 0.5 % was 20%.
As to `CC(C)=CCCC(C)CCOC(=O)CC#N` (stereo not shown) [Compound 2198, citronellyl cyanoacetate], the pest or weed control at 0.5 % runs as follows: under setting [1], 37.5%; under setting [2], 32.5%; under setting [3], 40%.
Consider `CCCCCCC(=O)OCCC(C)CCC=C(C)C` (stereo not shown) [Compound 2203, citronellyl hexanecarboxylate], for which the pest or weed control at 0.5 % by setting is: under setting [1], 0%; under setting [2], 10%; under setting [3], 20%.
For `CC(C)=CCCC(C)CCOC(=O)C(C)(C)F` (stereo not shown) [Compound 2208, citronellyl 2-fluoroisobutyrate], in that order: 37.5%, 75% and 77.5%.
As for `CC1CCC(C(C)C)C(OC(=O)C2(C)CCC2)C1` (stereo not shown) [Compound 2210, menthyl 1-methylcyclobutanecarboxylate], the pest or weed control at 0.5 % is, setting by setting: under setting [1], -5%; under setting [2], 62.5%.
In the case of `CC(C)=CCCC(C)CCOC(=O)CC1CC1` (stereo not shown) [Compound 2229, citronellyl cyclopropylacetate], the “Short-term repellency at low concentration, in words” value (FIG. 6) is reported as “significant levels of repellency”.
Regarding `CC(C)=CCCC(C)CCOC(=O)C(C)(F)F` (stereo not shown) [Compound 2232, citronellyl 2,2-difluoropropanoate], the pest or weed control at 0.5 % stood at 50% under setting [1], 82.5% under setting [2] and 82.5% under setting [3].
Turning to `CC(C)=CCCC(C)CCOC(=O)CC(F)(F)F` (stereo not shown) [Compound 2235, citronellyl 3,3,3-trifluoropropanoate], the pest or weed control at 0.5 % worked out at 12.5% under setting [1], 62.5% under setting [2] and 77.5% under setting [3].
For `CC(C)=CCCC(C)CCOC(=O)Cc1cccs1` (stereo not shown) [Compound 2244, citronellyl thiophen-2-ylacetate], in that order: 32.5%, 45% and 55%.
Take `CC1CCC(C(C)C)C(OC(=O)Cc2cccs2)C1` (stereo not shown) [Compound 2245, menthyl thiophen-2-ylacetate]: the pest or weed control at 0.5 % is -35% under setting [1], 35% under setting [2] and 57.5% under setting [3].
For `CC(C)=CCC/C(C)=C/COC(=O)CC(C)C` [Compound 2255A, geranyl isovalerate], in that order: 35%, 60% and 52.5%.
The like results for `CC(C)=CCC/C(C)=C\COC(=O)CC(C)C` [Compound 2255B, neryl isovalerate] were, in that order, 7.5%, 75% and 80%.
Turning to `CC(C)CC(=O)OC1CC(C)CCC1C(C)C` (stereo not shown) [Compound 2256, menthyl isovalerate], the pest or weed control at 0.5 % under setting [1] came to 37.5%, the pest or weed control at 0.5 % under setting [2] was 42.5% and the pest or weed control at 0.5 % under setting [3] turned out to be 27.5%.
For the molecule `CC1=CCC(C(C)(C)OC(=O)CC(C)C)CC1` (stereo not drawn) [Compound 2257, alpha-terpinyl isovalerate], the pest or weed control at 0.5 % under setting [1] was determined as 10%, the pest or weed control at 0.5 % under setting [2] worked out at 55% and the pest or weed control at 0.5 % under setting [3] was 65%.
The like results for `CC(C)CC(=O)OCC1=CCC2CC1C2(C)C` (stereo not shown) [Compound 2258, myrteryl isovalerate] were, in that order, 35%, 85% and 87.5%.
In the case of `CC(C)=CCCC(C)CCOC(=O)C1CC(F)(F)C1` (stereo not shown) [Compound 3069, citronellyl 3,3-difluorocyclobutanecarboxylate], the pest or weed control at 0.5 % reads like this: under setting [1], 2.5%; under setting [2], 20%; under setting [3], 27.5%.
